Values quoted from earlier work in patent US20150246117A1, “TREATMENT OF TYPE 2 DIABETES AND RELATED CONDITIONS” (priority 2012, published 2015).
Read-outs that look alike come from different tables or passages of the source. Values belong to the molecule of their own block, whether it stands above or below them.

Key:
[1] = for hypoglycemia in combination therapy: combined with sulfonylurea, insulin secretagogue or insulin
CYP3A4/5 = details: coadministration with strong CYP3A4/5 inhibitors (e.g., ketoconazole)
[2] = in vivo
[3] = co-administration of 100 mg sitagliptin for 10 days

Molecule: Cn1c(=O)cc(N2CCC[C@@H](N)C2)n(Cc2ccccc2C#N)c1=O [Alogliptin]
Half-life (in vivo): 12.4 to 21.4 h
adverse events / tolerability in clinical studies ([1]; human, in vivo): The agent is relatively well tolerated
rate of skin events, primarily pruritus ([1]; human, in vivo): finding being a marginally higher rate

Molecule: N[C@@H](CC(=O)N1CCc2c(nc(C(F)(F)F)nc2C(F)(F)F)C1)CN1CC(F)(F)CCC1=O [Gemigliptin]
Half-life (in vivo): 17 to 21 h
adverse events / tolerability in clinical studies ([1]; human, in vivo): No serious adverse events recorded.

Molecule: CC#CCn1c(N2CCC[C@@H](N)C2)nc2c1c(=O)n(Cc1nc(C)c3ccccc3n1)c(=O)n2C [linagliptin]
Half-life (after 5 mg dose): >100 h after 5 mg
hypoglycemia in combination therapy [1]: Hypoglycemia was more commonly

Molecule: CCCCCCCCCCCCCCCC(=O)N[C@@H](CCC(=O)NCCCC[C@H](NC(=O)[C@H](C)NC(=O)[C@H](C)NC(=O)[C@H](CCC(N)=O)NC(=O)CNC(=O)[C@H](CCC(=O)O)NC(=O)[C@H](CC(C)C)NC(=O)[C@H](Cc1ccc(O)cc1)NC(=O)[C@H](CO)NC(=O)[C@H](CO)NC(=O)[C@@H](NC(=O)[C@H](CC(=O)O)NC(=O)[C@H](CO)NC(=O)[C@@H](NC(=O)[C@H](Cc1ccccc1)NC(=O)[C@@H](NC(=O)CNC(=O)[C@H](CCC(=O)O)NC(=O)[C@H](C)NC(=O)[C@@H](N)Cc1cnc[nH]1)[C@@H](C)O)[C@@H](C)O)C(C)C)C(=O)N[C@@H](CCC(=O)O)C(=O)N[C@@H](Cc1ccccc1)C(=O)N[C@H](C(=O)N[C@@H](C)C(=O)N[C@@H](Cc1c[nH]c2ccccc12)C(=O)N[C@@H](CC(C)C)C(=O)N[C@H](C(=O)N[C@@H](CCCNC(=N)N)C(=O)NCC(=O)N[C@@H](CCCNC(=N)N)C(=O)NCC(=O)O)C(C)C)[C@@H](C)CC)C(=O)O [liraglutide]
Immunogenicity-related events, including urticaria ([1]; treated patients in clinical trials (comparator-treated 0.4%)): Victoza-treated patients (0.8%) than among

Molecule: Dulaglutide
adverse events / tolerability in clinical studies ([1]; human, in vivo): Gastrointestinal adverse events reported

Now from value to molecule, other results behind:

Half-life (in vivo): 3 to 4 h
Molecule: COc1ccc2cc3[n+](cc2c1OC)CCc1cc2c(cc1-3)OCO2 [berberine]
adverse events / tolerability in clinical studies ([1]; human, in vivo): Transient gastrointestinal adverse

Half-life (in vivo): 10 to 13 h
Molecule: O=C(CN[C@@H]1CCNC1)N1CCC[C@H]1B(O)O [dutogliptin]

Half-life (after oral 5 mg): 2.5 h after
Peripheral edema ([1]; combination with a thiazolidinedione (TZD) vs placebo and TZD): Peripheral edema was reported more
saxagliptin concentrations (CYP3A4/5): increases
Molecule: N#C[C@@H]1C[C@@H]2C[C@@H]2N1C(=O)[C@@H](N)C12CC3CC(CC(O)(C3)C1)C2 [saxagliptin]

Half-life (after oral): 12.4 h after
hypoglycemia in combination therapy [1]: There is an increased risk of
fertility / fetal harm, animal studies or animal data [2]: JANUVIA did not impair
increase in area under the curve (AUC) of digoxin [3]: curve (AUC, 11%)
Molecule: N[C@@H](CC(=O)N1CCn2c(nnc2C(F)(F)F)C1)Cc1cc(F)c(F)cc1F [sitagliptin]

excretion in milk, animal studies [2]: excretion of vildagliptin
Molecule: N#C[C@@H]1CCCN1C(=O)CNC12CC3CC(CC(O)(C3)C1)C2 [vildagliptin]

patients showing antibodies against the drug ([1]; human, in vivo): (compared to exenatide); 49% of patients
Molecule: taspoglutide
